Here are results for 3 substances from patent US7928088B2, “Th1 cell differentiation accelerator” (priority 2006, dated 2011).

Assay [1] relates to human naive CD4T cells. It counts as cell-based. Particulars: for IFNγ+IL-4− cells (%) / ratio of IFNγ-producing cells (in words): Th1 differentiation inducing conditions; for IFNγ+IL-4− cells (%): crude human CD4T cells; for ratio of IFNγ-producing cells (in words): summary of Tables 4 and 5.
The subject of assay [2] is human naive CD4T cells. Description: Human Th2 differentiation induction culture with intracellular IFNγ/IL-4 staining and flow cytometry. The note with it: for ratio of IFNγ-producing cells (in words) / ratio of IL-4-producing cells (in words) / IFNγ+IL-4− cells (%) / IFNγ−IL-4+ cells (%): Th2 differentiation inducing conditions; for IFNγ+IL-4− cells (%) / IFNγ−IL-4+ cells (%): crude human CD4T cells; for IFNγ+IL-4− cells (%): control 18.1; for IFNγ−IL-4+ cells (%): control 19.4. The assay is classed as cell-based. How it is done:
Separation of human naive CD4T cells was performed using an automated magnetic cell sorter (autoMACS Miltenyi Biotec GmbH) by the method described below. Whole blood was drawn by venous paracentesis from six healthy donor volunteers at 24 to 50 years of age. 50 ml of human peripheral blood was diluted two fold with 50 ml of a D-PBS solution (Sigma-Aldrich Inc). Next, 25 ml of the above-described diluted peripheral blood was gradually overlain in four centrifugal tubes containing 12.5 ml of Ficoll-Paque Plus (Amersham Biosciences), and the tubes were centrifuged using a centrifuge at room temperature and 950 G for 30 minutes. After centrifugation, lymphocytes present in the intermediate layer between the Ficoll-Paque and the supernatant were recovered, and suspended in a D-PBS solution containing 3% fetal calf serum (FCS: JRH Biosiences) and 2 mM EDTA (Dojindo Inc) (hereinafter, referred to as MACS buffer); the suspension was centrifuged using a centrifuge at 4° C. and 500 G for 5 minutes to sediment the lymphocytes. The resulting lymphocyte pellet was again suspended in MACS buffer; the suspension was centrifuged at 500 G for 5 minutes to sediment the lymphocytes, and twice washed to yield a lymphocyte pellet. This cell pellet was again suspended in the MACS buffer to obtain a cell density of 1×10^8 cells/ml. To 1×10^7 lymphocytes, 2 μL of an FITC-labeled anti-human CD8 antibody (BD BioScience Pharmingen) and 2 μL of an FITC-labeled anti-human CD45RO antibody (BD BioScience Pharmingen) were added, and they were reacted on ice for 30 minutes to thereby bind each antibody. The MACS buffer was added to the reaction mixture, and the mixture was centrifuged and twice washed at 4° C. Next, 10 μL of anti-FITC microbeads (Miltenyi Biotec GmbH) was added to 1×10^7 lymphocytes coupled with each antibody, and they were reacted with each other on ice for 15 minutes. The MACS buffer was added to the reaction mixture, and the mixture was centrifuged and twice washed at 4° C. The cell pellet obtained was suspended in the MACS buffer to obtain a cell density of 5×10^7/ml, and the suspension was passed through a nylon mesh (Abe Kagaku), after which a CD8- and CD45RO-double-negative fraction was recovered using an automated magnetic cell sorter (AutoMACS Miltenyi Biotec GmbH) to thereby separate human naive CD4T cells, which were supplied for the following experiments.
Under Th2 differentiation conditions, the cells were stimulated on a plate having the anti-CD3 antibody immobilized thereon for 2 days in a differentiation induction medium containing 50 U/ml (final concentration) IL-2 (Immunace, Shionogi & Co., Ltd.), 1 ng/ml (final concentration) IL-4, and 5 μg/ml (final concentration) anti-IFNγ antibody (Pharmingen, and the cells were transferred to a plate without immobilized anti-CD3 antibody, and cultured for 5 days. Furthermore, in the case of Th2 cell differentiation, following the 2 days, 5 days of differentiation induction was performed in two consecutive cycles.
Unless otherwise specified, the final concentrations of CW, LAM/LM, PIM2 and PIM6 were adjusted to 100 μg/ml.
Cells undergoing Th1 differentiation induction (Th1-induced cells) and cells undergoing Th2 differentiation induction (Th2-induced cells) were cultured and stimulated in the presence of Monensin (Sigma) in a medium supplemented with PMA (Phorbol-12-Myristate-13-Acetate, Sigma-Aldrich) and Ionomycin (Calbiochem) for 4 hours. After stimulation, intracellular staining was performed by the method described below, the cells were analyzed using a cell analyzer (FACScalibur), and the degree of Th1 or Th2 differentiation induction was evaluated. […]

Where [3] appears, read: 10 μg/ml, Table 4 test, vehicle 51.2.
The mark [4] stands for this setting: 30 μg/ml, Table 5 test, vehicle 60.6.
The mark [5] stands for this setting: 100 μg/ml, Table 4 test, vehicle 51.2.
The mark [6] stands for this setting: 100 μg/ml, Table 5 test, vehicle 60.6.

Where two headings read alike, the source gives them in different places.

For the substance cardiolipin [reference compound], in assay [1] (Th1 differentiation conditions, T cells from six healthy human volunteers, 100 μg/ml, FIGS. 8 and 9), the “number of IFNγ-producing cells (in words)” value is “did not increase”. Further, in assay [1] (Th1 differentiation induction, 100 μg/ml, FIG. 7B), the “potential to induce Th1 differentiation” value is “did not exhibit the potential to induce Th1 differentiation”. Also, the “number of IL-4-producing cells (in words)” value in assay [2] (Th2 differentiation conditions, T cells from six healthy human volunteers, 100 μg/ml, FIGS. 8 and 9) is listed as “increased”. In assay [2] (100 μg/ml, FIG. 7B), the “ratio of IFNγ-producing cells (in words)” value is reported as “did not increase” and the “ratio of IL-4-producing cells (in words)” value is on record as “increased”.
In the case of lipoarabinomannan [LAM], the “IFNγ+IL-4− cells (%)” value in assay [1] (setting [3]) is given as 55.9%; in assay [1] (setting [4]) it was 63.1%; in assay [1] (setting [5]), 55.4%; in assay [1] (setting [6]), 67.6%; in assay [2] (3 μg/ml), 26.9%; in assay [2] (30 μg/ml), 34.8%. For the same substance, the “ratio of IFNγ-producing cells (in words)” value in assay [1] was “significantly increased”; in assay [2] (FIG. 13 and Table 6), “dose-dependently increased”. Besides, the “ratio of IL-4-producing cells (in words)” value in assay [2] (FIG. 13 and Table 6) was “dose-dependently suppressed”. The “IFNγ−IL-4+ cells (%)” value in assay [2] (3 μg/ml) was determined as 17.2%; in assay [2] (30 μg/ml) it was 11.9%.
Consider lipomannan [LM], for which the “IFNγ+IL-4− cells (%)” value is 56.7% in assay [1] (setting [3]); 70.5% in assay [1] (setting [4]); 67.9% in assay [1] (setting [5]); 69.1% in assay [1] (setting [6]); 29.5% in assay [2] (3 μg/ml); 38.4% in assay [2] (30 μg/ml). Moreover, the “ratio of IFNγ-producing cells (in words)” value is “significantly increased” in assay [1]; “dose-dependently increased” in assay [2] (FIG. 13 and Table 6). For the same substance, in assay [2] (FIG. 13 and Table 6), the “ratio of IL-4-producing cells (in words)” value was “dose-dependently suppressed”. Besides, the “IFNγ−IL-4+ cells (%)” value in assay [2] (3 μg/ml) is 14.3%; in assay [2] (30 μg/ml), 8.8%.
